Results from patent US5344927A, “Tetrahydrobenzimidazole derivatives and pharmaceutical compositions containing same” (Yamanouchi Pharmaceutical Co., Ltd., priority 1989, dated 1994).

Target: T1, 5-HT3 -receptor (Rattus norvegicus, UniProt P35563)
T1 construct: Transient reduction in heart rate and blood pressure induced by intravenous administration of serotonin; from tissue
T1 sequence (P35563 24-483): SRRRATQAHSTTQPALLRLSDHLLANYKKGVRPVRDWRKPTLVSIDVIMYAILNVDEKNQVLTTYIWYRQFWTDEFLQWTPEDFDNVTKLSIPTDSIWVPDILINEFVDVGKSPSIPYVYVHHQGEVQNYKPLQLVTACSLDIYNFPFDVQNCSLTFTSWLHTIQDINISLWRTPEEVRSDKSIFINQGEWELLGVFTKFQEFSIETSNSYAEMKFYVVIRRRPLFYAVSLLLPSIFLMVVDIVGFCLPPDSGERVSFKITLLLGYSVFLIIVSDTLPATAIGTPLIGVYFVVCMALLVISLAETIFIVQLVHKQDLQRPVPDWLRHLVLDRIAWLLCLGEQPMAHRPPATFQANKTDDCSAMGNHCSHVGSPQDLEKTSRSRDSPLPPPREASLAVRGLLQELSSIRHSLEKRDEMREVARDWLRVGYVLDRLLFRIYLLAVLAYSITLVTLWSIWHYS
Test: Antagonism against 5-HT3-receptor: serotonin-induced Bezold-Jarish (BJ) reflex in anesthetized rats
Type: in vivo
Conditions: iv, 10 min, i.v., urethane-anesthetized Wistar male rats, given 10 minutes before serotonin, read-out: BJ Reflex Inhibitory Activity ED50
Description: Nine-week-old Wistar male rats were anesthetized by intraperitoneal administration of 1 g/kg of urethane, and blood pressure and heart rate were measured under artificial respiration. Transient reduction in heart rate and blood pressure induced by intravenous administration of serotonin or 2-methylserotonin which is a selective agonist of 5-HT3 was taken as an index of the reaction via 5-HT3 receptor [Bezold-Jarish reflex; Paintal, A. S., Pysiolo. Rev., Vol. 53, p. 159 (1973)].
Inhibitory activity of the compound of the present invention on serotonin-induced Bezold-Jarish (BJ) reflex in rats is shown in Table 1 below.

Structure (SMILES)	ED50 [µg/kg]
O=C(C1CCc2nc[nH]c2C1)N1CCc2ccccc21.O=C(O)/C=C/C(=O)O (centres unmarked) [Example 2, 5-[(2,3-Dihydroindol-1-yl)carbonyl]-4,5,6,7-tetrahydrobenzimidazole fumarate]	0.29
O=C(C1CCc2nc[nH]c2C1)n1c(=O)[nH]c2ccccc21 (centres unmarked) [Example 9, 1-[(4,5,6,7-tetrahydrobenzimidazol-5-yl)carbonyl]-2,3-dihydrobenzimidazol-2-one]	0.8
